{
  "source": "patent US20250382286A1",
  "about": "“CO-CRYSTAL OF AFICAMTEN, AND PREPARATION METHOD THEREFOR AND USE THEREOF” (CRYSTAL PHARMACEUTICAL (SUZHOU) CO., LTD., priority 2023, published 2025)",
  "assay_type_in_all_cases": "physicochemical",
  "key": {"[1]": {"assay": "Stability under mechanical force (ball milling)", "conditions": "milled 5 minutes at 500 rpm, XRPD", "experimental": "The crystalline form of the sample before and after ball milling were tested by XRPD, and the XRPD overlay is depicted in FIG. 6."}, "[2]": {"assay": "Hygroscopicity and humidity stability by DVS", "experimental": "DVS data in the present disclosure were measured via an SMS (Surface Measurement Systems Ltd.) intrinsic DVS instrument. The instrument control software is DVS-Intrinsic control software. Typical Parameters for DVS test are as follows: • Temperature: 25° C. • Gas and flow rate: N2, 200 mL/min • RH range: 0% RH to 95% RH\nDVS analyzer was applied to evaluate the hygroscopicity of Form CSI with an appropriate amount. The mass changes at each relative humidity were recorded in a cycle of 0% RH-95%RH-0%RH. The crystalline form of the sample before and after DVS were tested by XRPD."}, "[3]": {"assay": "Physical and chemical stability on storage (XRPD, HPLC)", "experimental": "Chemical purity and crystalline form were tested by HPLC and XRPD."}, "[4]": {"conditions": "25° C./60% RH, 9 months, sealed container"}, "[5]": {"conditions": "40° C./75% RH, 9 months, sealed container"}, "[6]": {"conditions": "60° C./75% RH, 3 months, sealed container"}},
  "note": "“Also recorded” adds a separate entry of the source.",
  "data": [
    {"smiles": "CCc1nc(-c2ccc3c(c2)CC[C@H]3NC(=O)c2cnn(C)c2)no1.CCc1nc(-c2ccc3c(c2)CC[C@H]3NC(=O)c2cnn(C)c2)no1.O=C(O)C(O)C(O)C(=O)O", "note": "[Form CSI]", "values": [
      {"measurement": "Crystalline form after ball milling", "setting": "[1]", "value": "doesn't change; also recorded: no form change"},
      {"measurement": "Mass increase (weight gain) at 80% RH", "setting": "[2]; DVS, 25° C., equilibrium at 80% RH", "value": 0.18, "unit": "%"},
      {"measurement": "Crystalline form after humidity cycle", "setting": "[2]; cycle of 0% RH-95%RH-0%RH, XRPD", "value": "remains unchanged"},
      {"measurement": "Time stable on storage (no change of crystalline form)", "setting": "[3]; 25° C./60% RH", "value": "at least 9 months"},
      {"measurement": "Purity", "setting": "[3]; [4]", "value": 99.98, "unit": "%"},
      {"measurement": "Solid form", "setting": "[3]; [4]", "value": "Form CSI"},
      {"measurement": "Time stable on storage (no change of crystalline form)", "setting": "[3]; 40° C./75% RH", "value": "at least 9 months"},
      {"measurement": "Purity", "setting": "[3]; [5]", "value": 99.99, "unit": "%"},
      {"measurement": "Solid form", "setting": "[3]; [5]", "value": "Form CSI"},
      {"measurement": "Time stable on storage (no change of crystalline form)", "setting": "[3]; 60° C./75% RH", "value": "at least 3 months"},
      {"measurement": "Purity", "setting": "[3]; [6]", "value": 99.98, "unit": "%"},
      {"measurement": "Solid form", "setting": "[3]; [6]", "value": "Form CSI"},
      {"measurement": "Purity", "setting": "[3]; Initial", "value": 99.98, "unit": "%"},
      {"measurement": "Solid form", "setting": "[3]; Initial", "value": "Form CSI"}
    ]}
  ]
}
